Assays:
[1] = tested on: Inflammation-Related Factors; assay type: in vivo, ICR mice; settings: Adamgammadex sodium 1 g/kg, Sugammadex sodium 1 mg/kg, Neostigmine 0.3 mg/kg; for impact on inducing immune inflammation in mice (in words): conclusion from Tables 3 and 4; for Fluorescence Intensity M-CSF (Macrophage lysis-stimulating factor): second M-CSF line of Table 4
Procedure: An antibody array is a type of protein chip characterized by miniaturization, integration, and high throughput. It can be used to detect the expression abundance of proteins related to a specific physiological or pathological process. The principle involves arranging capture antibodies on a membrane or glass slide, incubating with the sample, adding biotin-labeled antibodies against the target proteins, and finally using HRP-streptavidin or fluorescein-streptavidin to detect the chip signal. Signals are detected using chemiluminescence or HiLyte™ Fluor 555-streptavidin.
In this experiment, ICR mice were randomly divided into a blank group, Adamgammadex sodium (1 g/kg) group, Sugammadex sodium (1 mg/kg) group, and Neostigmine (0.3 mg/kg) group, with 2 mice per group. Mice in each group given the corresponding dosage of compound via the tail vein once daily for 5 consecutive days. On the last day after administration, plasma from the 2 animals per group was mixed and detected using the Ary028 immune chip kit. Specific detection steps were as follows: • (1) Sample volume determination: 200 µL serum sample per Array unit. (2) Blocking protein chip: Each membrane was blocked with 2 mL of corresponding Array Buffer, incubated on a shaker for 1 hour. (3) Sample processing: Samples were diluted with corresponding Array Buffer to a volume of 1.5 mL per membrane, the corresponding Array unit was added, and incubated overnight with the Array protein membrane at 4°C. (4) Membranes were washed three times with corresponding Wash buffer, then diluted detection antibody was added and incubated at room temperature for 1 h. (5) Membranes were washed three times with corresponding Wash buffer, streptavidin-HRP was added and incubated for 30min at room temperature with shaking. (6) Membranes were washed three times with corresponding Wash buffer, 1 mL of chemiluminescent reagent was added to each well, and developed on a chemiluminescence imager. (7) Fluorescence intensity was used to represent the relative concentration of the corresponding protein.

[2] = tested on: cisatracurium-induced guinea pig muscle relaxation model; assay: Antagonism of residual muscle relaxation after cisatracurium in anesthetized guinea pigs (TOF monitoring); assay type: in vivo, Hartley guinea pigs; settings: for Residual Muscle Relaxation Recovery Time tTOF0-50: spontaneous recovery before administration; for Degree of tTOF50-90 shortening: vs negative control group
Procedure: Ninety (90) qualified Hartley guinea pigs, male, were used. Sixty (60) animals were randomly divided into 6 experimental groups based on body weight using a stratified random method: negative control group, positive control group, low-dose test group, medium-dose test group, high-dose test group, and combination group, with 10 animals per group (n=10). The remaining animals served as spares. The negative control group received 0.9% sodium chloride. The positive control group received 0.0625 mg/kg neostigmine methylsulfate (referred to as neostigmine). The low-dose test group received 10 mg/kg adamgammadex sodium. The medium-dose test group received 20 mg/kg adamgammadex sodium. The high-dose test group received 40 mg/kg adamgammadex sodium. The combination group received 10 mg/kg adamgammadex sodium and 0.03125 mg/kg neostigmine. The administration volume for all groups was 1 mL/kg.
Adaptive feeding was conducted after the quarantine period. On the day of the experiment, guinea pigs were weighed, administered atropine (0.1 mg/kg) intramuscularly, and then anesthetized with an intraperitoneal injection of anesthetic (pentobarbital sodium 10 mg/kg, urethane 1000 mg/kg). After fixation, the animals were intubated and connected to a small animal ventilator. Both external jugular veins and the right carotid artery were cannulated. The left jugular vein was used for cisatracurium infusion, the right jugular vein for injection of different test substances, and the carotid artery was connected to a multi-channel physiological signal acquisition and processing system for continuous monitoring of arterial blood pressure and heart rate. Electrode patches were subcutaneously placed behind the left femur and tibia of the guinea pig, and two stimulating electrodes of the neuromuscular monitor were fixed to the two electrode patches. The left hind paw was fixed on a custom-made platform. A sensor was fixed to the skin surface over the gastrocnemius muscle of the left hind limb, and a skin temperature probe was fixed to a flat area of skin. Continuous single-twitch stimulation was applied at 1 Hz. After the twitch height stabilized, the mode was switched to train-of-four stimulation (TOF mode, stimulus current 5 mA, frequency 2 Hz, pulse width 0.2 ms, interval between trains 15 s) for at least 5 min. Calibration was then performed using Calibration Mode 2, followed by TOF mode stimulation. After obtaining a stable stimulation response for at least 2 min, cisatracurium solution was infused intravenously using a dual-channel micro-infusion pump, and the start time of infusion was recorded. […] At this point, cisatracurium infusion was stopped. After stopping the infusion, neuromuscular function was allowed to recover spontaneously. When neuromuscular function reached moderate recovery, the test drug formulation was administered intravenously. Neuromuscular function was allowed to recover completely, and the administration time was recorded (Figure 1). Using the time of spontaneous recovery to moderate neuromuscular function (TOF50) as zero point, the times for recovery from TOF50 to TOF75, TOF75 to TOF90, and TOF50 to TOF90 were calculated for each animal (Table 1-2). Arterial blood pressure (systolic, diastolic, mean arterial pressure) and heart rate were recorded before cisatracurium infusion, at the time cisatracurium infusion was stopped, at the time of moderate neuromuscular recovery, and at the time of complete neuromuscular function recovery (Tables 3-7). Data were expressed as Mean ± SD. Statistical T-tests were performed using SPSS software to evaluate differences in blood pressure, heart rate, and residual neuromuscular blockade recovery times. P < 0.05 was considered statistically significant.

[3] = ICR mice, tail vein once daily for 5 days, pooled plasma of 2 mice, N.D. = below minimum detection limit
[4] = high-dose test group, 40 mg/kg i.v.
[5] = low-dose test group, 10 mg/kg i.v.
[6] = medium-dose test group, 20 mg/kg i.v.
[7] = positive control group, 0.0625 mg/kg i.v.

Adamgammadex sodium [Compound 1] was tested, and the “Fluorescence Intensity BAFF/BlyS/ TNFSF13B (B cell activation factor)” value [1, 3] was 6659.29, the “Fluorescence Intensity C-Reactive Protein/CRP (C-reactive protein)” value [1, 3] was 5549.81 and the “Fluorescence Intensity CCL21/6Ckine (Lymphocyte chemokine CCL21)” value [1, 3] was 8082.61. For the same compound, the “Fluorescence Intensity CCL22/MDC (Macrophage-derived chemokine)” value [1, 3] was 738.38, the “Fluorescence Intensity Chemerin (Chemotactic factor)” value [1, 3] was 2680.26 and the “Fluorescence Intensity IL-7 (Interleukin-7)” value [1, 3] was 1850.57. For the same compound, the “Fluorescence Intensity IL-28 (Interleukin-28)” value [1, 3] was 244.77, the “Fluorescence Intensity M-CSF (Macrophage colony-stimulating factor)” value [1, 3] was 871.82 and the “Fluorescence Intensity Myeloperoxidase (Mastoperoxidase)” value [1, 3] was 1927.54. The “impact on inducing immune inflammation in mice (in words)” value [1] was “smallest impact”, the “Fluorescence Intensity M-CSF (Macrophage lysis-stimulating factor)” value [1, 3] was 871.82 and the “Residual Muscle Relaxation Recovery Time Ratios RtTOF50-75/0-50” value [2, 4] was 0.10±0.11. The “Residual Muscle Relaxation Recovery Time Ratios RtTOF50-90/0-50” value [2, 4] was 0.16±0.11, the “Residual Muscle Relaxation Recovery Time Ratios RtTOF75-90/0-50” value [2, 4] was 0.06±0.06 and the “Residual Muscle Relaxation Recovery Time tTOF50-75” value [2, 4] was 131 ± 144 s. For the same compound, the “Residual Muscle Relaxation Recovery Time tTOF50-90” value [2, 4] was 201 ± 131 s, the “Residual Muscle Relaxation Recovery Time tTOF75-90” value [2, 4] was 71 ± 52 s and the “Residual Muscle Relaxation Recovery Time tTOF0-50” value [2, 4] was 1413 ± 693 s. The “Degree of tTOF50-90 shortening” value [2, 4] was 55.8%, the “Residual Muscle Relaxation Recovery Time Ratios RtTOF50-75/0-50” value [2, 5] was 0.14±0.10 and the “Residual Muscle Relaxation Recovery Time Ratios RtTOF50-90/0-50” value [2, 5] was 0.23±0.13. For the same compound, the “Residual Muscle Relaxation Recovery Time Ratios RtTOF75-90/0-50” value [2, 5] was 0.09±0.05, the “Residual Muscle Relaxation Recovery Time tTOF50-75” value [2, 5] was 143 ± 85 s and the “Residual Muscle Relaxation Recovery Time tTOF50-90” value [2, 5] was 248 ± 139 s. For the same compound, the “Residual Muscle Relaxation Recovery Time tTOF75-90” value [2, 5] was 105 ± 78 s, the “Residual Muscle Relaxation Recovery Time tTOF0-50” value [2, 5] was 1093 ± 427 s and the “Degree of tTOF50-90 shortening” value [2, 5] was 45.5%. For the same compound, the “Residual Muscle Relaxation Recovery Time Ratios RtTOF50-75/0-50” value [2, 6] was 0.12±0.05, the “Residual Muscle Relaxation Recovery Time Ratios RtTOF50-90/0-50” value [2, 6] was 0.22±0.08 and the “Residual Muscle Relaxation Recovery Time Ratios RtTOF75-90/0-50” value [2, 6] was 0.09±0.07. For the same compound, the “Residual Muscle Relaxation Recovery Time tTOF50-75” value [2, 6] was 159 ± 72 s, the “Residual Muscle Relaxation Recovery Time tTOF50-90” value [2, 6] was 279 ± 123 s and the “Residual Muscle Relaxation Recovery Time tTOF75-90” value [2, 6] was 120 ± 99 s. The “Residual Muscle Relaxation Recovery Time tTOF0-50” value [2, 6] was 1349 ± 381 s and the “Degree of tTOF50-90 shortening” value [2, 6] was 38.7%.

`CN(C)C(=O)Oc1cccc([N+](C)(C)C)c1` [Neostigmine, neostigmine methylsulfate] was tested, and the “Fluorescence Intensity BAFF/BlyS/ TNFSF13B (B cell activation factor)” value [1, 3] was 12170.94, the “Fluorescence Intensity C-Reactive Protein/CRP (C-reactive protein)” value [1, 3] was 11999.12 and the “Fluorescence Intensity CCL17/TARC (Thymus activation regulatory chemokine)” value [1, 3] was 3653.32. The “Fluorescence Intensity CCL19/MIP 3β (Macrophage inflammatory protein 3β)” value [1, 3] was 3385.33, the “Fluorescence Intensity CCL20/MIP 3α (Macrophage inflammatory protein 3α)” value [1, 3] was 4440.55 and the “Fluorescence Intensity CCL21/6Ckine (Lymphocyte chemokine CCL21)” value [1, 3] was 17119.34. The “Fluorescence Intensity CCL22/MDC (Macrophage-derived chemokine)” value [1, 3] was 4762.19, the “Fluorescence Intensity CD160 (Leukocyte differentiation antigen160)” value [1, 3] was 4298.1 and the “Fluorescence Intensity CX3CL1/ Gractalkine (Neural chemokine)” value [1, 3] was 2935.07. For the same compound, the “Fluorescence Intensity CXCL1/KC (Neutrophil chemokine)” value [1, 3] was 2935.82, the “Fluorescence Intensity CXCL9/MIG (IFN-γ-induced monocyte factor)” value [1, 3] was 1730.04 and the “Fluorescence Intensity CXCL10/IP-10 (Interferon-induced protein 10)” value [1, 3] was 1971.99. For the same compound, the “Fluorescence Intensity CXCL11/I-TAC (Interferon-induced T cell chemokines)” value [1, 3] was 2397.51, the “Fluorescence Intensity CXCL13 (CXC family chemokine)” value [1, 3] was 3607.1 and the “Fluorescence Intensity CXCL16 (CXC family chemokine)” value [1, 3] was 2426.598. The “Fluorescence Intensity Chemerin (Chemotactic factor)” value [1, 3] was 7955.57, the “Fluorescence Intensity G-CSF (Granulocyte colony-stimulating factor)” value [1, 3] was 1289.56 and the “Fluorescence Intensity IL-2 (Interleukin-2)” value [1, 3] was 1107.85. The “Fluorescence Intensity IL-7 (Interleukin-7)” value [1, 3] was 3226.41, the “Fluorescence Intensity IL-10 (Interleukin-10)” value [1, 3] was 1601.99 and the “Fluorescence Intensity IL-11 (Interleukin-11)” value [1, 3] was 2195.99. For the same compound, the “Fluorescence Intensity IL-12p40 (Interleukin IL-12p40)” value [1, 3] was 2936.85, the “Fluorescence Intensity IL-13 (Interleukin-13)” value [1, 3] was 1609.58 and the “Fluorescence Intensity IL-15 (Interleukin-15)” value [1, 3] was 1503.8. For the same compound, the “Fluorescence Intensity IL-17A (Interleukin -17A)” value [1, 3] was 783.45, the “Fluorescence Intensity IL-22 (Interleukin-22)” value [1, 3] was 1253.05 and the “Fluorescence Intensity IL-23 (Interleukin-23)” value [1, 3] was 1483.72. The “Fluorescence Intensity IL-27p28 (Interleukin-27p28)” value [1, 3] was 1575.98, the “Fluorescence Intensity IL-28 (Interleukin-28)” value [1, 3] was 3505.78 and the “Fluorescence Intensity IL-33 (Interleukin-33)” value [1, 3] was 1897.86. For the same compound, the “Fluorescence Intensity M-CSF (Macrophage colony-stimulating factor)” value [1, 3] was 6478.33, the “Fluorescence Intensity Myeloperoxidase (Mastoperoxidase)” value [1, 3] was 6395.44 and the “Fluorescence Intensity Pentraxin 3 (Pertussis toxin 3)” value [1, 3] was 3694.57. The “Fluorescence Intensity TIM-1/KIM-1/ HAVCR (Hepatitis A virus receptor-1 (inflammation/ immunity))” value [1, 3] was 1197.17, the “impact on inducing immune inflammation in mice (in words)” value [1] was “most severe impact” and the “Fluorescence Intensity M-CSF (Macrophage lysis-stimulating factor)” value [1, 3] was 6478.33. For the same compound, the “Fluorescence Intensity Pentraxin 3/TSG-14 (Pertussis toxin 3)” value ([1]; second Pentraxin 3 line of Table 4, ICR mice, tail vein once daily for 5 days, pooled plasma of 2 mice, N.D. = below minimum detection limit) was 3694.57, the “Residual Muscle Relaxation Recovery Time Ratios RtTOF50-75/0-50” value [2, 7] was 0.09±0.07 and the “Residual Muscle Relaxation Recovery Time Ratios RtTOF50-90/0-50” value [2, 7] was 0.18±0.09. For the same compound, the “Residual Muscle Relaxation Recovery Time Ratios RtTOF75-90/0-50” value [2, 7] was 0.09±0.07, the “Residual Muscle Relaxation Recovery Time tTOF50-75” value [2, 7] was 101 ± 71 s and the “Residual Muscle Relaxation Recovery Time tTOF50-90” value [2, 7] was 188 ± 86 s. The “Residual Muscle Relaxation Recovery Time tTOF75-90” value [2, 7] was 87 ± 68 s, the “Residual Muscle Relaxation Recovery Time tTOF0-50” value [2, 7] was 1134 ± 281 s and the “Degree of tTOF50-90 shortening” value [2, 7] was 58.7%.

From EP4778531A1, “MUSCLE RELAXANT ANTAGONIST FOR REVERSAL FOR BENZYLISOQUINOLINE MUSCLE RELAXANT” (priority 2023, dated 2025)
